pIC50: −log10 of the molar value. Like-named read-outs stand apart in the source and are kept apart here.
How the values were obtained:
γ-secretase [1] = details: cited from earlier work
AD patients = details: cited from earlier work
dendritic spine density = details: mice; cited from earlier work
γ-secretase [2] = details: cited from earlier work; remark: listed apart in the source
[3] = Object recognition test (preclinical); format: in vivo; details: preclinical stage
[4] = Fear conditioning (preclinical); format: in vivo; details: preclinical studies
[5] = Morris water maze (preclinical); format: in vivo; details: preclinical study
[6] = tested on: human neuroglioma cells over-expressing the Swedish mutated APP (H4swe); details: read-out: IC50 for lowering Aβ42 secretion; cited from earlier work
COX-1 = COX-1 (Homo sapiens, UniProt P23219); details: concentrations up to 100 μM; cited from earlier work
COX-1, sequence (P23219 24-599): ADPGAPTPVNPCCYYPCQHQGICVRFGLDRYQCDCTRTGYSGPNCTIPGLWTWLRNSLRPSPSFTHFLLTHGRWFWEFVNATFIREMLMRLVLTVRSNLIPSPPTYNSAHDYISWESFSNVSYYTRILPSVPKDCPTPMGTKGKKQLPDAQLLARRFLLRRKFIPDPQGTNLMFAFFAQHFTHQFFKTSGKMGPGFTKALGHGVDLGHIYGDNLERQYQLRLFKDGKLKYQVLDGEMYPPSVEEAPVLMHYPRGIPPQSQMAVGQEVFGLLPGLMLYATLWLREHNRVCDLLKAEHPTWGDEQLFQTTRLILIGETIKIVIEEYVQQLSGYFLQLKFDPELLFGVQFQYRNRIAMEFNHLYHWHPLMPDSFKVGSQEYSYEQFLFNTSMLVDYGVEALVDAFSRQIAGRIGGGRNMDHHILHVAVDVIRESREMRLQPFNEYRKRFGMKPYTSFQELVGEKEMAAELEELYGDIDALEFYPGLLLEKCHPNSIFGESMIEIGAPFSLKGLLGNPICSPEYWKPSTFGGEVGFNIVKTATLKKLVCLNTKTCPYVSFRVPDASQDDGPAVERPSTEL

COX-2 = target: T1, COX-2 (Homo sapiens, UniProt P35354); details: concentrations up to 300 μM; cited from earlier work
T1 sequence (P35354 18-604): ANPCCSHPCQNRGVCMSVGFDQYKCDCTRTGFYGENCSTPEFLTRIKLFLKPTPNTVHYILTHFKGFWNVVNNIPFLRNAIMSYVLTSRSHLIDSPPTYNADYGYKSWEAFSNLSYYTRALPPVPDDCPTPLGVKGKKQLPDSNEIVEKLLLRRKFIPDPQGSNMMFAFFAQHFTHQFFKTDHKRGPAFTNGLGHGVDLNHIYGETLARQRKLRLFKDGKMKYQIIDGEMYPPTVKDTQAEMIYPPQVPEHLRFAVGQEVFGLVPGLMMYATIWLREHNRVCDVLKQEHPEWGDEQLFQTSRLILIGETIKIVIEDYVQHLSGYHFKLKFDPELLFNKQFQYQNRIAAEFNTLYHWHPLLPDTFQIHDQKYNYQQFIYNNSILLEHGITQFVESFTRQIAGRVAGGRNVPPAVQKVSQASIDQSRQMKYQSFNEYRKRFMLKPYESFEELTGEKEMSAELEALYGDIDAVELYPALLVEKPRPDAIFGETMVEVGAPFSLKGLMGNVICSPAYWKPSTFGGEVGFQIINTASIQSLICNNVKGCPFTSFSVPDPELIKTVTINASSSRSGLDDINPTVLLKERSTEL

[7] = tested on: Notch intracellular cleavage in human embryonic kidney 293 swe cells; details: 5 μM; cited from earlier work
NICD-responsive genes = details: 100 μM; cited from earlier work
[8] = mice, oral; cited from earlier work
[9] = rats, oral; cited from earlier work
[10] = species not given; follows mice and rats; cited from earlier work
[11] = guinea-pigs, cited from earlier work
[12] = dogs, cited from earlier work
[13] = tested on: transgenic mouse models of AD; details: cited from earlier work

CSc1ccc(/C=C2/C(C)=C(CC(=O)O)c3cc(F)ccc32)cc1 [sulindac sulfide]
formation of Aβ38 (γ-secretase [1]): increase | production of Aβ42 (γ-secretase [1]): lower

CC(C)[C@H](O)C(=O)N[C@@H](C)C(=O)N[C@@H]1C(=O)N(C)CCc2ccccc21 [semagacestat]
cognition and ability to complete activities of daily living versus placebo (AD patients; interim analysis of two Phase 3 trials): worsened over time to a statistically significantly higher rate | rate of skin cancer compared to placebo (AD patients; two 21-month Phase 3 trials, more than 2,600 AD patients): increased rate of skin cancer | dendritic spine density (dendritic spine density): decrease | brain and CSF levels of Aβ42 peptide (γ-secretase [2]; brain and CSF): increase | brain level of C-terminal fragment of APP (CTFβ or C99) (γ-secretase [2]; brain): accumulation

COc1ccc2c(c1)c(CC(=O)O)c(C)n2C(=O)c1ccc(Cl)cc1 [indomethacin]
formation of Aβ38 (γ-secretase [1]): increase | production of Aβ42 (γ-secretase [1]): lower

O=C(O)C1(c2ccc(-c3ccc(Cl)c(Cl)c3)c(F)c2)CC1 [CHF 5074, 1-(3′,4′-dichloro-2-fluorobiphenyl-4-yl)cyclopropanecarboxylic acid]
object recognition test performance [3]: positive effects | fear conditioning performance [4]: significantly improved | Morris water maze performance [5]: marginal effects | pIC50 [6]: 5.44 | inhibitory activity on COX-1 (COX-1): does not display inhibitory activity | inhibitory activity on COX-2 (COX-2): does not display inhibitory activity | effects on Notch intracellular cleavage [7]: no effects were observed | expression profile of several NICD-responsive genes (NICD-responsive genes): does not alter | absorbed orally [8]: 74% | absorbed orally [9]: 50% | brain levels as % of corresponding plasma concentrations [10]: 3-14% | plasma elimination half-life t1/2 ([11]; after oral administration): ≈ 30 hours | brain penetration [11]: 3-9% | absorbed by oral route ([12]; oral): 80-100% | plasma elimination t1/2 [12]: ≈ 24 hours | tolerability ([13]; 60 mg/kg/day, prolonged treatment for 4-9 months, mice): well tolerated | neuropathological and behavioral activity ([13]; oral doses of 60 mg/kg/day): active from neuropathological and behavioral points of view

CC(C(=O)O)c1ccc(-c2ccccc2)c(F)c1 (stereo not drawn) [flurbiprofen]
formation of Aβ38 (γ-secretase [1]): increase | production of Aβ42 (γ-secretase [1]): lower

CC(C)Cc1ccc(C(C)C(=O)O)cc1 (stereo not drawn) [ibuprofen]
formation of Aβ38 (γ-secretase [1]): increase | production of Aβ42 (γ-secretase [1]): lower
